Measured values as given in US12338199B2, “Bis-octahydrophenanthrene carboxamides and protein conjugates thereof” (REGENERON PHARMACEUTICALS, INC., priority 2017, dated 2025).
Values after ≈ are worked out from the molar mass of the structure shown. Where two headings read alike, the source gives them in different places.

What was measured:
LXR alpha = target: T1, LXR alpha (Homo sapiens, UniProt Q13133); assay: LanthaScreen TR-FRET LXR alpha Coactivator Assay (cell-free binding)
T1 construct: LXR alpha or beta LBD-GST; purchased ThermoFisher PV4655
T1 sequence (Q13133 209-447 limits assumed): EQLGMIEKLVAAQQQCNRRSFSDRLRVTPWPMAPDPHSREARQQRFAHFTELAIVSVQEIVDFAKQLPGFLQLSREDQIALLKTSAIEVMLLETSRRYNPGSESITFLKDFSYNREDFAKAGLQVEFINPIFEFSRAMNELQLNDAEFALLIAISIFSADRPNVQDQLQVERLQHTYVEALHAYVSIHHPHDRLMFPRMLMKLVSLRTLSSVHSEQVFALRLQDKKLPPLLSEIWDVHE
Description: (§1) To evaluate the ability of novel LXR agonists to bind to the LXR alpha and beta receptor, a cell-free binding assay was performed using a LanthaScreen TR-FRET LXR alpha Coactivator Assay Kit (ThermoFisher, Cat # PV4655) and LXR beta Coactivator Assay Kit (ThermoFisher, Cat # PV4658). The assay was performed according to the manufacturer's instructions. Briefly, a 3-fold serial dilution of LXR agonists were prepared in 100% DMSO starting at 100 μM (100× of final). Serial dilutions were further diluted 50-fold in nuclear receptor buffer F with 5 mM DTT, and transferred to a 384-well assay plate. Next, Fluorescein-D22, LXR alpha or beta LBD-GST, and Tb anti-GST antibody was sequentially added to 384-well assay plate. The plate was then incubated at rt for 2.5 hours while being protected from light. […] The IC50 values were determined using a four-parameter logistic equation over a 12-point response curve (GraphPad Prism).

LXR beta = target: T2, LXR beta (Homo sapiens, UniProt P55055); assay: LanthaScreen TR-FRET LXR beta Coactivator Assay (cell-free binding)
T2 construct: LXR alpha or beta LBD-GST; purchased ThermoFisher PV4658
T2 sequence (P55055 222-460 limits assumed): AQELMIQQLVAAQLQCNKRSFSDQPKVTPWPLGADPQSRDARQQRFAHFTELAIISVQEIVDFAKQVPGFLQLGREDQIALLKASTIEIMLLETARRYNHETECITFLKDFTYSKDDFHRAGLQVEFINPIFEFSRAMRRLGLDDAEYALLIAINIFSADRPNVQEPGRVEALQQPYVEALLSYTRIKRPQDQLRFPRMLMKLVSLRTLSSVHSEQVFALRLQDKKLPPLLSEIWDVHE
Description: as §1

THP1/LXR-Luc cells = assay: THP1/LXR-Luc luciferase reporter bioassay; assay type: cell-based; settings: Homo sapiens, THP-1, 48 hours; for EC50: read-out: Activation of THP1/LXR-Luc cells: EC50; for Emax: relative to maximum activation of free payload 9d, read-out: Activation of THP1/LXR-Luc cells: Fold of activation
Source text: The fold activation in the cell-based assays (as described in Example 68, below) was defined based on the maximum activation of the free payload 9d.
(§2) A bioassay was developed to assess the activity of LXR agonists after internalization of an agonist or of a ncADC into cells and binding to LXR, a nuclear receptor, using a commercially available LXR reporter (referred to as LXR-Luc) that contains the firefly luciferase gene under control by minimal CMV promoter and tandem repeats of the LXR transcriptional response element. For this assay, a THP1 cell line, which is a human monocytic leukaemia line, was engineered to express full length human Her2 (expressing amino acids M1 through V1255 of accession number NP_004439.2). The subsequent stable cell line was further transduced with a Cignal LXR Luc Reporter (Qiagen, Cat # CLS-7041L). The resulting stable cell line is referred to herein as THP1/Her2/LXR-Luc. The Her2 cell surface expression on THP1/Her2/LXR-Luc cell line was confirmed by FACS (data not shown).
Additionally, a THP1 cell line was transduced with a Cignal LXR Luc Reporter (Qiagen, Cat # CLS-7041L) without the addition of Her2. The resulting stable cell line is referred to herein as THP1/LXR-Luc. All of the antibodies used in the subsequent bioassays were assessed for their ability to internalize and release a payload on the bioassay cell line used.
(§3) This example assessed the ability of the LXR agonists provided herein, reference compounds, and anti-Her2 antibody-LXR ncADC to activate LXR. The samples were tested in the THP1/LXR-Luc/Her2 bioassay. For the assay, either THP1/LXR-Luc cells or THP1/LXR-Luc/Her2 cells were seeded onto white 96 well plates at 30,000 cells/well in media containing RPMI supplemented with 10% FBS and pencillin/streptomycin (complete media). Subsequently 3-fold serial dilutions of antibody drug conjugates, unconjugated antibodies, or free payloads were added to the cells at final concentration ranging from 100 nM to 0.01 nM. After 48-hour or 72-hour incubation, luciferase activity was determined after the addition of One-Glo™ reagent (Promega, Cat # E6130) to each well of cells. Relative light units (RLUs) were measured on a Victor luminometer (PerkinElmer) and the EC5o values were determined using a four-parameter logistic equation over a 10-point dose response curve (GraphPad Prism) (FIG. 15). The fold activation is calculated based on the maximum activation of the free payload 9d.

LXRα = target: T3, LXRα (Homo sapiens, UniProt Q13133); settings: reported in Bioconjug Chem. 2015 26(11), 2216-22; cited from earlier work
T3 sequence (Q13133 1-447): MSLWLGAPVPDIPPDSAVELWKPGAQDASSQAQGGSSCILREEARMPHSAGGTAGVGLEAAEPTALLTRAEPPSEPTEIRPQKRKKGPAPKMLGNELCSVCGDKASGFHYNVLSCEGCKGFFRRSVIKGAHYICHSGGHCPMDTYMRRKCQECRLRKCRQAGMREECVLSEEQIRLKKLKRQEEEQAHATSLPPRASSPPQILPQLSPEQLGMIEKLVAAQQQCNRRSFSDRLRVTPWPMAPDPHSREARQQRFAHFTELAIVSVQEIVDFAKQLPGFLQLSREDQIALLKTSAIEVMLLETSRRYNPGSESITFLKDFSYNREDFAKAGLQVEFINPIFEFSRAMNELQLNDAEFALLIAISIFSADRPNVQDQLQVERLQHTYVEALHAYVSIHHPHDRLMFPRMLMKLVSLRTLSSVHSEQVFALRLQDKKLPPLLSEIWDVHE

LXRβ = target: T4, LXRβ (Homo sapiens, UniProt P55055); settings: reported in Bioconjug Chem. 2015 26(11), 2216-22; cited from earlier work
T4 sequence (P55055 1-460): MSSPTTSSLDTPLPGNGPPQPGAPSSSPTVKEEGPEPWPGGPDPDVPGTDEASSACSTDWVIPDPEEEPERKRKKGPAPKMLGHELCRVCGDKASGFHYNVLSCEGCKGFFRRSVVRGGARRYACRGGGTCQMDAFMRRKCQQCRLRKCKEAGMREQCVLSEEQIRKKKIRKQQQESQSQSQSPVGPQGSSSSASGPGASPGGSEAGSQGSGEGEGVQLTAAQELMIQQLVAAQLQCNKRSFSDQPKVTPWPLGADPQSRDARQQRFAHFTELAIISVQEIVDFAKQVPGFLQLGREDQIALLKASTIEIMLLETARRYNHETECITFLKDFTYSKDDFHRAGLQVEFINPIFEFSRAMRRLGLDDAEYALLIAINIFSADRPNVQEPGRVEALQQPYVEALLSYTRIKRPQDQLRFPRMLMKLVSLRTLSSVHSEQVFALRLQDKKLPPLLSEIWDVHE

THP1/LXR-Luc/Her2 cells = assay: THP1/LXR-Luc/Her2 luciferase reporter bioassay; assay type: cell-based; settings: Homo sapiens
Source text: as §2, §3

ABCA1 = ABCA1 mRNA induction in differentiated THP-1 macrophages (TaqMan); assay type: cell-based, human; settings: THP1 macrophages, 24-hour treatment; magnitude in words
Description: (§4) To determine the ability of LXR agonists to activate ABCA1 and ABCG1 genes, the mRNA levels of these two genes in differentiated macrophages was measured. […] Cells were differentiated into macrophages by treatment with 100 nM Phorbol-12 myristate 13-acetate (Sigma, # P8139), which was added to the media described above, for 72 hours. […] Chloroform was then used for phase separation. The aqueous phase, containing total RNA, was purified using MagMAX™-96 for Microarrays Total RNA Isolation Kit (Ambion, Cat # AM1830) and reverse-transcribed into cDNA using SuperScript® VILO™ Master Mix (Invitrogen, Cat #11755050) as per the manufacturer's instructions. TaqMan® was performed using Gene Expression Master Mix, the ABI 7900HT Sequence Detection System (Applied Biosystems) and the primers and probes indicated below in Table 9. The GAPDH gene was used as the internal control gene to normalize any cDNA input differences.

ABCG1 = ABCG1 mRNA induction in differentiated THP-1 macrophages (TaqMan); assay type: cell-based, human; settings: THP1 macrophages, 24-hour treatment; magnitude in words
Description: as §4

Solubility in water = assay type: physicochemical; settings: H2O
Description: To a solution of compound LP2-6 (4.3 mg, 7.8 μmol) in anhydrous DMF (1 mL) was added HATU (3.0 mg, 7.8 μmol). The mixture was stirred at 10° C. for 10 minutes before compound LP2-5 (15 mg, 6.5 μmol) and DIPEA (1.7 mg, 13 μmol) was added. The mixture was stirred at RT for 2 hours until LP2-5 was totally consumed, as monitored by LCMS. […]

[1] = Water solubility and pH stability of phosphate analogs; assay type: physicochemical; settings: for Stability: pH as given in the value, 17c converted to 17b in the presence of methanol
Source text: The phosphoric acid-analog 17a was obtained from the treatment of phenol 9g with diphosphoryl chloride 18. Compounds 17b and 17c were obtained from the acidic deprotection of 17a with TFA.

[2] = TR-FRET, 12-point curve, read-out: Cell free binding LXRα IC50
[3] = TR-FRET, 12-point curve, read-out: Cell free binding LXRβ IC50

Row | SMILES | IC50 (LXR alpha; [2]) [nM] | IC50 (LXR beta; [3]) [nM] | EC50 (THP1/LXR-Luc cells) [nM] | Emax (THP1/LXR-Luc cells) [%] | Stability [1] | IC50 (LXR alpha) [nM] | IC50 (LXR beta) [nM] | other results
1 | CCc1cnc2c(C(F)(F)F)cccc2c1-c1cccc(Oc2cccc(S(=O)(=O)N(C)CCN)c2)c1 [Compound 31, N-(2-Aminoethyl)-3-(3-(3-ethyl-8-(trifluoromethyl)quinolin-4-yl)phenoxy)-N-methylbenzenesulfonamide, reference compound] | < 10 | < 10 | 10 to 100 | 25 to 75 | – | – | – | binding affinity to LXRα (LXRα): 1.5 nM; binding affinity to LXRβ (LXRβ): 12 nM
2 | C[C@]1(C(=O)NC(=O)[C@@]2(C)CCC[C@]3(C)c4cc(NC(=O)CN)ccc4CC[C@@H]23)CCC[C@]2(C)c3cc(O)ccc3CC[C@@H]12 [Compound 9h, (1S,4aS,10aR)-6-(2-Aminoacetamido)-N-((1S,4aS,10aR)-6-hydroxy-1,4a-dimethyl-1,2,3,4,4a,9,10,10a-octahydrophenanthrene-1-carbonyl)-1,4a-dimethyl-1,2,3,4,4a,9,10,10a-octahydrophenanthrene-1-carboxamide] | < 1 | < 1 | ≤ 1 | > 75 | – | – | – | EC50 (THP1/LXR-Luc/Her2 cells; THP-1, 48 h, 48-hour time point): 0.5 nM; EC50 (THP1/LXR-Luc/Her2 cells; THP-1, 48 h, 48 hours, unit inferred, values correspond to M): 0.5 nM; EC50 (THP1/LXR-Luc/Her2 cells; THP-1, 72 h, 72-hour time point): 0.65 nM; EC50 (THP1/LXR-Luc/Her2 cells; THP-1, 72 h, 72 hours): 0.65 nM; ABCA1 induction EC50 (ABCA1): sub-picomolar; ABCG1 induction EC50 (ABCG1): sub-picomolar
3 | CC(C)[C@H](NC(=O)[C@@H](CCCCNC(=O)COC1CCCCCc2c1nnn2CC1OC2OC3C(CO)OC(OC4C(CO)OC(OC5C(CO)OC(OC6C(CO)OC(OC7C(CO)OC(OC8C(CO)OC(OC9C(CO)OC(OC1C(O)C2O)C(O)C9O)C(O)C8O)C(O)C7O)C(O)C6O)C(O)C5O)C(O)C4O)C(O)C3O)NC(=O)CCOCCOCCOCCOCCNC(=O)CCC(=O)N1Cc2ccccc2C#Cc2ccccc21)C(=O)N[C@@H](C)C(=O)Nc1ccc2c(c1)[C@@]1(C)CCC[C@](C)(C(=O)NC(=O)[C@@]3(C)CCC[C@]4(C)c5cc(O)ccc5CC[C@@H]34)[C@@H]1CC2 (stereo partly shown) [LP32] | – | – | – | – | – | – | – | solubility (Solubility in water): 75 µg/mL (≈ 26.3 µM)
4 | C[C@]1(C(=O)NC(=O)[C@@]2(C)CCC[C@]3(C)c4cc(OP(=O)(O)O)ccc4CC[C@@H]23)CCC[C@]2(C)c3cc(N)ccc3CC[C@@H]12 [Compound 17c, (4bS,8S,8aR)-8-((1S,4aS,10aR)-6-Amino-1,4a-dimethyl-1,2,3,4,4a,9,10,10a-octahydrophenanthrene-1-carbonylcarbamoyl)-4b,8-dimethyl-4b,5,6,7,8,8a,9,10-octahydrophenanthren-3-yl dihydrogen phosphate] | – | – | ≤ 1 | > 75 | not stable at pH 5 | > 100 | < 10 | Solubility in water ([1]; under basic and neutral conditions): soluble in water
5 | COP(=O)(O)Oc1ccc2c(c1)[C@@]1(C)CCC[C@](C)(C(=O)NC(=O)[C@@]3(C)CCC[C@]4(C)c5cc(N)ccc5CC[C@@H]34)[C@@H]1CC2 [Compound 17b, (4bS,8S,8aR)-8-((1S,4aS,10aR)-6-Amino-1,4a-dimethyl-1,2,3,4,4a,9,10,10a-octahydrophenanthrene-1-carbonylcarbamoyl)-4b,8-dimethyl-4b,5,6,7,8,8a,9,10-octahydrophenanthren-3-yl methyl hydrogen phosphate] | – | – | 10 to 100 | > 75 | stable at pH 5-8 | 10 to 100 | < 10 | –
